Drawing on US10280159B2 (AbbVie Deutschland GmbH & Co. KG, priority 2015, dated 2019), this text covers EC50 for 22 compounds.

SMILES strings stand for the structures. Bounds are passed on as bounds.

Holding throughout (assay type): cell-based
One experiment concerns the target T1, human S1PR3 (Homo sapiens, UniProt Q99500).
T1 construct: host or cells: CHO-K1
Briefly: Intracellular Ca2+ release (FLIPR) agonist potency, S1P3. As to conditions: recombinant CHO-K1 cells expressing human S1PR3, aequorin, Gq/i5; Calcium 5 FLIPR; read-out: S1P3 EC50. The method, then: Agonistic activity was measured using the method described below.
Intracellular Ca^2+ Release
Agonist potency and intrinsic activity was assessed by measurement of intracellular Ca^2+ release. Recombinant CHO-K1 cells (Euroscreen, Brussels, Belgium) expressing human S1PR5, S1PR1, S1PR3 or S1PR4 receptors, aequorin, and GTP binding protein Gq/i5 were cultured using a medium containing nutrient mixture F-12 Ham (Sigma-Aldrich) with 10% FBS, and 100 μg/mL gentamicin and equilibrated at 5% CO2.
Phospho-fingolimod was used as positive control. Antagonists were pre-incubated for 10 min with cells before addition of the agonist (phospho-fingolimod at EC80). Measurements were performed using a fluorometric imaging plate reader FLIPR®tetra (Molecular Devices). Agonist at the human S1P receptors were characterized by deducing EC50 (potency) values from a nonlinear fit to the measured fluorescence raw data after normalization to the reference agonist (phospho-fingolimod) curve.

The target of another experiment is T2, human S1PR5 (Homo sapiens, UniProt Q9H228).
T2 construct: host or cells: CHO-K1
T2 sequence (Q9H228 whole entry): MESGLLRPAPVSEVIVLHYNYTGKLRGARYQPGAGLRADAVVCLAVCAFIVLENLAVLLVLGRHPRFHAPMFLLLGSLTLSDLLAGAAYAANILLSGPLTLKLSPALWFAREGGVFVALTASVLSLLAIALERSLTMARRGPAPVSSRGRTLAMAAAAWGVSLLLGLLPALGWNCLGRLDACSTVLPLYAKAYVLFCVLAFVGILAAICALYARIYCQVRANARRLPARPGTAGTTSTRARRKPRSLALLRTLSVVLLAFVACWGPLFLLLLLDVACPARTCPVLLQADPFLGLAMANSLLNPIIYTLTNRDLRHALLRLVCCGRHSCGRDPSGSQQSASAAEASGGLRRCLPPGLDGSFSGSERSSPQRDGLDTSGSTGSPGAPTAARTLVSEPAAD
The experiment is described as follows: Intracellular Ca2+ release (FLIPR) agonist potency, S1P5. Conditions: recombinant CHO-K1 cells expressing human S1PR5, aequorin, Gq/i5; Calcium 5 FLIPR; read-out: S1P5 EC50 range. The essentials:
(§1)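 CHO-K1/receptor/aequorin/Gq/i5 cells, F-12 Ham + 10% FBS. Ca2+ release read on FLIPR Tetra. EC50 by nonlinear fit after normalizing to phospho-fingolimod reference curve.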

The target in the next experiment is T3, human S1PR1 (Homo sapiens, UniProt P21453).
T3 construct: host or cells: CHO-K1
T3 sequence (P21453 whole entry): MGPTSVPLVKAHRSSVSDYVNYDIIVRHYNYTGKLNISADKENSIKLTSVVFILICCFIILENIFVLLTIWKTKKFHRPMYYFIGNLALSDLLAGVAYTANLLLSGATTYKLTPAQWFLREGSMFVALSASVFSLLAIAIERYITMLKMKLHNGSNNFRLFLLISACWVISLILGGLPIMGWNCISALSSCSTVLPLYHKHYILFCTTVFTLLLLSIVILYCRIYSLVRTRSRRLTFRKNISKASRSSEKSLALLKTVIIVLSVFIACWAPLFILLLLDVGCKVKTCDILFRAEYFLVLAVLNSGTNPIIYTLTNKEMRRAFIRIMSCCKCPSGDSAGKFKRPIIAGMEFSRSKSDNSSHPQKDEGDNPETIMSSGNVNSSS
The experiment is described as follows: Intracellular Ca2+ release (FLIPR) agonist potency, S1P1. Conditions: recombinant CHO-K1 cells expressing human S1PR1, aequorin, Gq/i5; Calcium 5 FLIPR; read-out: S1P1 EC50. The gist of the method: as §1

The next experiment deals with T4, human S1PR4 (Homo sapiens, UniProt O95977).
T4 construct: host or cells: CHO-K1
T4 sequence (O95977 1-384): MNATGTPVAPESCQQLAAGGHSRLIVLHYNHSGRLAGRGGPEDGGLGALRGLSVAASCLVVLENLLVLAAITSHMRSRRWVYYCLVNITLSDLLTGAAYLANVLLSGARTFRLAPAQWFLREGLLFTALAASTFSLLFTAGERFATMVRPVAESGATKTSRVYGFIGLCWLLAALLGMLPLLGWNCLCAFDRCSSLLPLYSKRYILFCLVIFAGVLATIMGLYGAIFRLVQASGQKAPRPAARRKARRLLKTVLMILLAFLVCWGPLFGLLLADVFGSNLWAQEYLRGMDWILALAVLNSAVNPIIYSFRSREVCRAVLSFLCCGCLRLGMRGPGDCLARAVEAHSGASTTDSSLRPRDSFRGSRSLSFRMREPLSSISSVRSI
Briefly: Intracellular Ca2+ release (FLIPR) agonist potency, S1P4. As to conditions: recombinant CHO-K1 cells expressing human S1PR4, aequorin, Gq/i5; Calcium 5 FLIPR; read-out: S1P4 EC50. The gist of the method:
as §1

T1 sequence (Q99500 whole entry): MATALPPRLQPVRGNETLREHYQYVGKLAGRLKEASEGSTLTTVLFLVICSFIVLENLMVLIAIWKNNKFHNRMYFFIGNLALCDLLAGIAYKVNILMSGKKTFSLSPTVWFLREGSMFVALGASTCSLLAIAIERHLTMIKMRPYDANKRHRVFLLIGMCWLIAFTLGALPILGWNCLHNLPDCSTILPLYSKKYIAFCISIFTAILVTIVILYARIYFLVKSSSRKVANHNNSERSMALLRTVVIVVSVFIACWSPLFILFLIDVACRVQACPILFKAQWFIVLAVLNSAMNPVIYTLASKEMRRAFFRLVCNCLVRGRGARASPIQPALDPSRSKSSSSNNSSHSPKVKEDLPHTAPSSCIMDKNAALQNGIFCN

For the compound `O=C(O)C1CN(C2COc3cc(OCc4c(Cl)cccc4C4CC4)ccc3C2)C1` (stereo not shown) [Compound 25, 1-(7-((2-chloro-6-cyclopropylbenzyl)oxy)chroman-3-yl)azetidine-3-carboxylic acid], the EC50 – broadly, the concentration that produces a half-maximal response – is above 1000 nM on human S1PR3, below 10 nM at human S1PR5, above 1000 nM at human S1PR1 and below 1000 nM at human S1PR4.
Regarding `O=C(O)C1CN(C2COc3cc(C#Cc4cc(F)cc(F)c4)ccc3C2)C1` (stereo not shown) [Compound 27, 1-(7-((3,5-difluorophenyl)ethynyl)chroman-3-yl)azetidine-3-carboxylic acid], the EC50 on human S1PR3 was above 1000 nM; at human S1PR5, below 10 nM; on human S1PR1, above 1000 nM; at human S1PR4, below 1000 nM.
Turning to `O=C(O)CNC1CCc2cc(C#Cc3cc(F)cc(F)c3)ccc2C1` (stereo not shown) [Compound 28, 2-((6-((3,5-difluorophenyl)ethynyl)-1,2,3,4-tetrahydronaphthalen-2-yl)amino)acetic acid], the EC50 at human S1PR3 is above 1000 nM; at human S1PR5, below 10 nM; on human S1PR1 it was above 1000 nM; on human S1PR4, below 1000 nM.
In the case of `O=C(O)CNC1CCc2cc(C#Cc3c(Cl)cccc3Cl)ccc2C1` (stereo not shown) [Compound 29, 2-((6-((2,6-dichlorophenyl)ethynyl)-1,2,3,4-tetrahydronaphthalen-2-yl)amino)acetic acid], the EC50 at human S1PR3 was above 1000 nM; on human S1PR5 it was below 10 nM; at human S1PR1, above 1000 nM; at human S1PR4 it was below 1000 nM.
Take `O=C(O)CNC1CCc2cc(C#CC3CCCCC3)ccc2C1` (stereo not shown) [Compound 30, 2-((6-(cyclohexylethynyl)-1,2,3,4-tetrahydronaphthalen-2-yl)amino)acetic acid]: the 50% effective concentration (EC50) at human S1PR3 is above 1000 nM; at human S1PR5, below 10 nM; on human S1PR1, above 1000 nM; on human S1PR4 it was below 1000 nM.
Take `O=C(O)C1CCN(C2CCc3cc(OCc4c(Cl)cccc4Cl)ccc3C2)CC1` (stereo not shown) [Compound 31, 1-(6-((2,6-dichlorobenzyl)oxy)-1,2,3,4-tetrahydronaphthalen-2-yl)piperidine-4-carboxylic acid]: the concentration for a half-maximal effect (EC50) was above 1000 nM on human S1PR3, below 10 nM at human S1PR5, below 1000 nM on human S1PR1 and below 1000 nM at human S1PR4.
As to `O=C(O)C12CC(NC3CCc4cc(OCc5c(Cl)cccc5Cl)ccc4C3)(C1)C2` (stereo not shown) [Compound 32, 3-((6-((2,6-dichlorobenzyl)oxy)-1,2,3,4-tetrahydronaphthalen-2-yl)amino)bicyclo[1.1.1]pentane-1-carboxylic acid], the half-maximal effective concentration (EC50) at human S1PR3 is above 1000 nM; at human S1PR5, below 10 nM; at human S1PR1 it was above 1000 nM; on human S1PR4, below 1000 nM.
On to `CC(NC1CCc2cc(OCc3c(Cl)cccc3Cl)ccc2C1)C(=O)O` (stereo not shown) [Compound 33, 2-((6-((2,6-dichlorobenzyl)oxy)-1,2,3,4-tetrahydronaphthalen-2-yl)amino)propanoic acid], for which the EC50 on human S1PR3 was above 1000 nM; at human S1PR5, below 10 nM; at human S1PR1, above 1000 nM; on human S1PR4, below 1000 nM.
With `CCc1cccc(Cl)c1COc1ccc2c(c1)OCC(NCC(=O)O)C2` (stereo not shown) [Compound 34, 2-((7-((2-chloro-6-ethylbenzyl)oxy)chroman-3-yl)amino)acetic acid], the EC50 at human S1PR3 was above 1000 nM; at human S1PR5, below 10 nM; on human S1PR1, above 1000 nM; on human S1PR4, below 1000 nM.
For `O=C(O)CNC1COc2cc(OCc3c(Cl)cccc3Cl)ccc2C1` (stereo not shown) [Compound 35, 2-((7-((2,6-dichlorobenzyl)oxy)chroman-3-yl)amino)acetic acid], the EC50 on human S1PR3 was above 1000 nM; on human S1PR5 it was 100 to 1000 nM; on human S1PR1 it was above 1000 nM; on human S1PR4 it was below 1000 nM.
Regarding `O=C(O)C1CN(C2COc3cc(C#Cc4cc(F)ccc4F)ccc3C2)C1` (stereo not shown) [Compound 38, 1-(7-((2,5-difluorophenyl)ethynyl)chroman-3-yl)azetidine-3-carboxylic acid], the EC50 was above 1000 nM on human S1PR3, below 10 nM on human S1PR5, above 1000 nM at human S1PR1 and below 1000 nM on human S1PR4.
`O=C(O)C1CN(C2COc3cc(C#Cc4cccc(Cl)c4)ccc3C2)C1` (stereo not shown) [Compound 40, 1-(7-((3-chlorophenyl)ethynyl)chroman-3-yl)azetidine-3-carboxylic acid]: the EC50 at human S1PR3 is above 1000 nM; on human S1PR5 it was 10 to 100 nM; at human S1PR1, above 1000 nM; on human S1PR4, below 1000 nM.
With `O=C(O)C1CN(C2COc3cc(C#Cc4ccccc4C(F)(F)F)ccc3C2)C1` (stereo not shown) [Compound 41, 1-(7-((2-(trifluoromethyl)phenyl)ethynyl)chroman-3-yl)azetidine-3-carboxylic acid], the EC50 at human S1PR3 was above 1000 nM; at human S1PR5 it was 10 to 100 nM; at human S1PR1, above 1000 nM; at human S1PR4, above 1000 nM.
For the compound `O=C(O)C1CN(C2COc3cc(C#Cc4ccccc4OC(F)F)ccc3C2)C1` (stereo not shown) [Compound 42, 1-(7-((2-(difluoromethoxy)phenyl)ethynyl)chroman-3-yl)azetidine-3-carboxylic acid], the EC50 on human S1PR3 is above 1000 nM; on human S1PR5 it was 10 to 100 nM; on human S1PR1, above 1000 nM; at human S1PR4, above 1000 nM.
Consider `O=C(O)C1CN(C2COc3cc(C#Cc4c(Cl)cccc4Cl)ccc3C2)C1` (stereo not shown) [Compound 44, 1-(7-((2,6-dichlorophenyl)ethynyl)chroman-3-yl)azetidine-3-carboxylic acid], for which the half-maximal effective concentration (EC50) was above 1000 nM on human S1PR3, 10 to 100 nM at human S1PR5, above 1000 nM on human S1PR1 and above 1000 nM at human S1PR4.
For `O=C(O)C1CN(C2COc3cc(C#Cc4c(F)cccc4F)ccc3C2)C1` (stereo not shown) [Compound 47, 1-(7-((2,6-difluorophenyl)ethynyl)chroman-3-yl)azetidine-3-carboxylic acid], the EC50 on human S1PR3 was above 1000 nM; on human S1PR5, 10 to 100 nM; at human S1PR1 it was above 1000 nM; on human S1PR4 it was below 1000 nM.
In the case of `O=C(O)C12CC(NC3COc4cc(OCc5c(Cl)cccc5Cl)ccc4C3)(C1)C2` (stereo not shown) [Compound 48, 3-((7-((2,6-dichlorobenzyl)oxy)chroman-3-yl)amino)-bicyclo[1.1.1]pentane-1-carboxylic acid], the EC50 on human S1PR3 was above 1000 nM; at human S1PR5, 10 to 100 nM; on human S1PR1, above 1000 nM; at human S1PR4 it was above 1000 nM.
In the case of `O=C(O)C1CN(C2COc3cc(-c4ccc(OCc5ccc(Cl)cc5)cc4)ccc3C2)C1` (stereo not shown) [Compound 54, 1-(7-(4-((4-chlorobenzyl)oxy)phenyl)chroman-3-yl)azetidine-3-carboxylic acid], the EC50 at human S1PR3 was above 1000 nM; on human S1PR5, below 10 nM; at human S1PR1, above 1000 nM; at human S1PR4, above 1000 nM.
As for `O=C(O)C1CN(C2COc3cc(-c4ccc(OCC5CCCCC5)cc4)ccc3C2)C1` (stereo not shown) [Compound 55, 1-(7-(4-(cyclohexylmethoxy)phenyl)chroman-3-yl)azetidine-3-carboxylic acid], the EC50 at human S1PR3 was above 1000 nM; on human S1PR5, below 10 nM; on human S1PR1 it was below 1000 nM; at human S1PR4 it was above 1000 nM.
On to `O=C(O)C1CN(C2COc3cc(-c4ccc(OCc5cccc(F)c5F)cc4)ccc3C2)C1` (stereo not shown) [Compound 56, 1-(7-(4-((2,3-difluorobenzyl)oxy)phenyl)chroman-3-yl)azetidine-3-carboxylic acid], for which the 50% effective concentration (EC50) was above 1000 nM on human S1PR3, 10 to 100 nM at human S1PR5, below 1000 nM on human S1PR1 and above 1000 nM on human S1PR4.
For the compound `CCc1ccccc1COc1ccc2c(c1)OCC(N1CC(C(=O)O)C1)C2` (stereo not shown) [Compound 64, 1-(7-((2-ethylbenzyl)oxy)chroman-3-yl)azetidine-3-carboxylic acid], the concentration giving a half-maximal response (EC50) at human S1PR3 was above 1000 nM; at human S1PR5, 10 to 100 nM; at human S1PR1 it was above 1000 nM; at human S1PR4, below 1000 nM.
For `CCc1cccc(F)c1COc1ccc2c(c1)OCC(N1CC(C(=O)O)C1)C2` (stereo not shown) [Compound 65, 1-(7-((2-ethyl-6-fluorobenzyl)oxy)chroman-3-yl)azetidine-3-carboxylic acid], the EC50 at human S1PR3 was above 1000 nM; on human S1PR5 it was below 10 nM; at human S1PR1, above 1000 nM; on human S1PR4 it was below 1000 nM.
